# Source: PubChem BioAssay AID1919003 (Molecular Pharmacology Branch, DTP, NCI, 2023)
# pIC50: −log10 of the molar value.
# System: 786-0 complex spheroids with HUVEC/MSC, growth % test/control
# Experiment: Anticancer human tumor 786-0 cell line growth inhibition [AhR];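 note: compound exposure lasted seven days before the read-out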
# Conditions: for pIC50: curve of first compound; for viability, T/C: stronger effect = lower value
# In short: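 Spheroids combined tumor cells with HUVEC endothelial cells and human MSCs as stroma. AhR antagonists were paired with standard or investigational drugs, each dosed in half-log steps down from near clinical Cmax, or from 10 microM where Cmax was unknown.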
# [1] = second compound 0.1 µM, first compound 0.0316 µM
# [2] = second compound 0.1 µM, first compound 0.1 µM
# [3] = second compound 0.316 µM, first compound 0.0316 µM
# [4] = second compound 0.316 µM, first compound 0.1 µM
# [5] = second compound 1 µM, first compound 0.0316 µM
# [6] = second compound 1 µM, first compound 0.1 µM
# [7] = second compound 3.16 µM, first compound 0.0316 µM
# [8] = second compound 3.16 µM, first compound 0.1 µM
# [9] = second compound 10 µM, first compound 0.0316 µM
# [10] = second compound 10 µM, first compound 0.1 µM
# [11] = second compound 0.1 µM, first compound 0.316 µM
# [12] = second compound 0.1 µM, first compound 1 µM
# [13] = second compound 0.1 µM, first compound 3.16 µM
# [14] = second compound 0.1 µM, first compound 10 µM
# [15] = second compound 0.316 µM, first compound 0.316 µM
# [16] = second compound 0.316 µM, first compound 1 µM
# [17] = second compound 0.316 µM, first compound 3.16 µM
# [18] = second compound 0.316 µM, first compound 10 µM
# [19] = second compound 1 µM, first compound 0.316 µM
# [20] = second compound 1 µM, first compound 1 µM
# [21] = second compound 1 µM, first compound 3.16 µM
# [22] = second compound 1 µM, first compound 10 µM
# [23] = second compound 3.16 µM, first compound 0.316 µM
# [24] = second compound 3.16 µM, first compound 1 µM
# [25] = second compound 3.16 µM, first compound 3.16 µM
# [26] = second compound 3.16 µM, first compound 10 µM
# [27] = second compound 10 µM, first compound 0.316 µM
# [28] = second compound 10 µM, first compound 1 µM
# [29] = second compound 10 µM, first compound 3.16 µM
# [30] = second compound 10 µM, first compound 10 µM
structure (smiles),measurement,setting,value
CC[C@@]1(O)C(=O)OCc2c1cc1n(c2=O)Cc2cc3c(CN(C)C)c(O)ccc3nc2-1 + Cc1cncc(-c2nc(NCCc3c[nH]c4ccccc34)c3ncn(C(C)C)c3n2)c1,pIC50,second compound 0.1 µM,7.21
same,pIC50,second compound 0.316 µM,7.19
same,pIC50,second compound 1 µM,7.25
same,pIC50,second compound 3.16 µM,7.55
same,pIC50,second compound 10 µM,> 9.50
same,"viability, T/C","second compound 0.1 µM, first compound 0.000316 µM",116%
same,"viability, T/C","second compound 0.1 µM, first compound 0.001 µM",118%
same,"viability, T/C","second compound 0.1 µM, first compound 0.00316 µM",117%
same,"viability, T/C","second compound 0.1 µM, first compound 0.01 µM",115%
same,"viability, T/C",[1],91.1%
same,"viability, T/C",[2],20.1%
same,"viability, T/C","second compound 0.316 µM, first compound 0.000316 µM",113%
same,"viability, T/C","second compound 0.316 µM, first compound 0.001 µM",107%
same,"viability, T/C","second compound 0.316 µM, first compound 0.00316 µM",119%
same,"viability, T/C","second compound 0.316 µM, first compound 0.01 µM",112%
same,"viability, T/C",[3],99%
same,"viability, T/C",[4],19.2%
same,"viability, T/C","second compound 1 µM, first compound 0.000316 µM",109%
same,"viability, T/C","second compound 1 µM, first compound 0.001 µM",109%
same,"viability, T/C","second compound 1 µM, first compound 0.00316 µM",103%
same,"viability, T/C","second compound 1 µM, first compound 0.01 µM",108%
same,"viability, T/C",[5],83.5%
same,"viability, T/C",[6],16%
same,"viability, T/C","second compound 3.16 µM, first compound 0.000316 µM",73.4%
same,"viability, T/C","second compound 3.16 µM, first compound 0.001 µM",78.5%
same,"viability, T/C","second compound 3.16 µM, first compound 0.00316 µM",88.8%
same,"viability, T/C","second compound 3.16 µM, first compound 0.01 µM",83%
same,"viability, T/C",[7],46.5%
same,"viability, T/C",[8],9.39%
same,"viability, T/C","second compound 10 µM, first compound 0.000316 µM",15.5%
same,"viability, T/C","second compound 10 µM, first compound 0.001 µM",11%
same,"viability, T/C","second compound 10 µM, first compound 0.00316 µM",11.8%
same,"viability, T/C","second compound 10 µM, first compound 0.01 µM",4.85%
same,"viability, T/C",[9],1.61%
same,"viability, T/C",[10],0.53%
CCc1c2c(nc3ccc(O)cc13)-c1cc3c(c(=O)n1C2)COC(=O)[C@]3(O)CC + Cc1cncc(-c2nc(NCCc3c[nH]c4ccccc34)c3ncn(C(C)C)c3n2)c1,pIC50,second compound 0.1 µM,8.22
same,pIC50,second compound 0.316 µM,8.22
same,pIC50,second compound 1 µM,8.29
same,pIC50,second compound 3.16 µM,8.82
same,pIC50,second compound 10 µM,> 9.02
same,"viability, T/C","second compound 0.1 µM, first compound 0.000949 µM",106%
same,"viability, T/C","second compound 0.1 µM, first compound 0.003 µM",93.5%
same,"viability, T/C","second compound 0.1 µM, first compound 0.00949 µM",21.5%
same,"viability, T/C","second compound 0.1 µM, first compound 0.03 µM",5.21%
same,"viability, T/C","second compound 0.1 µM, first compound 0.0949 µM",2.42%
same,"viability, T/C","second compound 0.1 µM, first compound 0.3 µM",2.24%
same,"viability, T/C","second compound 0.316 µM, first compound 0.000949 µM",112%
same,"viability, T/C","second compound 0.316 µM, first compound 0.003 µM",95.4%
same,"viability, T/C","second compound 0.316 µM, first compound 0.00949 µM",21%
same,"viability, T/C","second compound 0.316 µM, first compound 0.03 µM",6.67%
same,"viability, T/C","second compound 0.316 µM, first compound 0.0949 µM",3.31%
same,"viability, T/C","second compound 0.316 µM, first compound 0.3 µM",2.09%
same,"viability, T/C","second compound 1 µM, first compound 0.000949 µM",99.5%
same,"viability, T/C","second compound 1 µM, first compound 0.003 µM",79.5%
same,"viability, T/C","second compound 1 µM, first compound 0.00949 µM",15.4%
same,"viability, T/C","second compound 1 µM, first compound 0.03 µM",5.63%
same,"viability, T/C","second compound 1 µM, first compound 0.0949 µM",2.53%
same,"viability, T/C","second compound 1 µM, first compound 0.3 µM",3.71%
same,"viability, T/C","second compound 3.16 µM, first compound 0.000949 µM",65.7%
same,"viability, T/C","second compound 3.16 µM, first compound 0.003 µM",27.2%
same,"viability, T/C","second compound 3.16 µM, first compound 0.00949 µM",4.92%
same,"viability, T/C","second compound 3.16 µM, first compound 0.03 µM",2.43%
same,"viability, T/C","second compound 3.16 µM, first compound 0.0949 µM",1.6%
same,"viability, T/C","second compound 3.16 µM, first compound 0.3 µM",1.37%
same,"viability, T/C","second compound 10 µM, first compound 0.000949 µM",1.65%
same,"viability, T/C","second compound 10 µM, first compound 0.003 µM",0.61%
same,"viability, T/C","second compound 10 µM, first compound 0.00949 µM",0.43%
same,"viability, T/C","second compound 10 µM, first compound 0.03 µM",0.38%
same,"viability, T/C","second compound 10 µM, first compound 0.0949 µM",0.28%
same,"viability, T/C","second compound 10 µM, first compound 0.3 µM",0.36%
Nc1ccccc1NC(=O)c1ccc(CNC(=O)OCc2cccnc2)cc1 + Cc1cncc(-c2nc(NCCc3c[nH]c4ccccc34)c3ncn(C(C)C)c3n2)c1,pIC50,second compound 0.1 µM,5.14
same,pIC50,second compound 0.316 µM,5.11
same,pIC50,second compound 1 µM,5.17
same,pIC50,second compound 3.16 µM,5.34
same,pIC50,second compound 10 µM,> 7.50
same,"viability, T/C",[1],119%
same,"viability, T/C",[2],114%
same,"viability, T/C",[11],125%
same,"viability, T/C",[12],115%
same,"viability, T/C",[13],106%
same,"viability, T/C",[14],27.8%
same,"viability, T/C",[3],118%
same,"viability, T/C",[4],114%
same,"viability, T/C",[15],128%
same,"viability, T/C",[16],126%
same,"viability, T/C",[17],115%
same,"viability, T/C",[18],32%
same,"viability, T/C",[5],106%
same,"viability, T/C",[6],113%
same,"viability, T/C",[19],121%
same,"viability, T/C",[20],108%
same,"viability, T/C",[21],97%
same,"viability, T/C",[22],25.6%
same,"viability, T/C",[7],68.1%
same,"viability, T/C",[8],71.4%
same,"viability, T/C",[23],65.4%
same,"viability, T/C",[24],60.5%
same,"viability, T/C",[25],69.2%
same,"viability, T/C",[26],15.2%
same,"viability, T/C",[9],8.31%
same,"viability, T/C",[10],9.06%
same,"viability, T/C",[27],3.52%
same,"viability, T/C",[28],0.75%
same,"viability, T/C",[29],0.39%
same,"viability, T/C",[30],0.77%
Nc1ccn(C2OC(CO)C(O)C2(F)F)c(=O)n1 (stereo not given) + Cc1cncc(-c2nc(NCCc3c[nH]c4ccccc34)c3ncn(C(C)C)c3n2)c1,pIC50,second compound 0.1 µM,> 7.50
same,pIC50,second compound 0.316 µM,> 7.50
same,pIC50,second compound 1 µM,> 7.50
same,pIC50,second compound 3.16 µM,> 7.50
same,pIC50,second compound 10 µM,> 7.50
same,"viability, T/C",[1],6.61%
same,"viability, T/C",[2],6.32%
same,"viability, T/C",[11],4.8%
same,"viability, T/C",[12],5.2%
same,"viability, T/C",[13],8.48%
same,"viability, T/C",[14],7.97%
same,"viability, T/C",[3],7.89%
same,"viability, T/C",[4],7.93%
same,"viability, T/C",[15],6.11%
same,"viability, T/C",[16],6.04%
same,"viability, T/C",[17],7.74%
same,"viability, T/C",[18],6.69%
same,"viability, T/C",[5],6.44%
same,"viability, T/C",[6],6.22%
same,"viability, T/C",[19],6.31%
same,"viability, T/C",[20],5.01%
same,"viability, T/C",[21],6.11%
same,"viability, T/C",[22],5.37%
same,"viability, T/C",[7],2.07%
same,"viability, T/C",[8],1.87%
same,"viability, T/C",[23],3.18%
same,"viability, T/C",[24],1.68%
same,"viability, T/C",[25],3.27%
same,"viability, T/C",[26],7.69%
same,"viability, T/C",[9],0.4%
same,"viability, T/C",[10],0.29%
same,"viability, T/C",[27],0.24%
same,"viability, T/C",[28],0.33%
same,"viability, T/C",[29],0.61%
same,"viability, T/C",[30],0.37%
O=C(c1cc(Cc2n[nH]c(=O)c3ccccc23)ccc1F)N1CCN(C(=O)C2CC2)CC1 + Cc1cncc(-c2nc(NCCc3c[nH]c4ccccc34)c3ncn(C(C)C)c3n2)c1,pIC50,second compound 0.1 µM,< 5.00
same,pIC50,second compound 0.316 µM,< 5.00
same,pIC50,second compound 1 µM,< 5.00
same,pIC50,second compound 3.16 µM,< 5.00
same,pIC50,second compound 10 µM,> 7.50
same,"viability, T/C",[1],125%
same,"viability, T/C",[2],119%
same,"viability, T/C",[11],133%
same,"viability, T/C",[12],125%
same,"viability, T/C",[13],120%
same,"viability, T/C",[14],131%
same,"viability, T/C",[3],115%
same,"viability, T/C",[4],126%
same,"viability, T/C",[15],123%
same,"viability, T/C",[16],126%
same,"viability, T/C",[17],128%
same,"viability, T/C",[18],120%
same,"viability, T/C",[5],112%
same,"viability, T/C",[6],123%
same,"viability, T/C",[19],112%
same,"viability, T/C",[20],112%
same,"viability, T/C",[21],121%
same,"viability, T/C",[22],108%
same,"viability, T/C",[7],80.2%
same,"viability, T/C",[8],82.3%
same,"viability, T/C",[23],82.8%
same,"viability, T/C",[24],85.1%
same,"viability, T/C",[25],79.3%
same,"viability, T/C",[26],77.9%
same,"viability, T/C",[9],10.6%
same,"viability, T/C",[10],18%
same,"viability, T/C",[27],9.64%
same,"viability, T/C",[28],16.9%
same,"viability, T/C",[29],15.3%
same,"viability, T/C",[30],13%
